Drawing on patent publication US8871796B2, “Diaryl ether derivatives as notch sparing gamma secretase inhibitors” (Merck Sharp & Dohme Corp., priority 2009, dated 2014), this text covers IC50 for 26 compounds.

A short description of this assay: APP processing: AlphaLisa assay of secreted Aβ40 and Aβ42 from SP4CT cells. The format is cell-based. To be noted: Homo sapiens, SH-SY5Y cells expressing amyloid β protein (SP4CT cells). The protocol:
APP Processing (Assay Quantitates Secreted Aβ Analytes from Cell Lines):
The effect of compounds on the abundance of Aβ40 and Aβ42 peptides generated from SH-SY5Y cells expressing amyloid β protein (SP4CT cells) are determined by an AlphaLisa™ assay. Analogous to an ELISA assay, generation of […] AlphaLisa™ assay requires “donor” and “acceptor” beads to be brought in close proximity by specific antibody recognition of either Aβ40 or Aβ42 peptides. The assay is accomplished by removing media from compound-treated SP4CT cells to two different microplates, followed by the addition of donor beads conjugated with streptavidin binding a biotinylated anti-amyloid β monocolonal antibody (clone 4G8). Acceptor beads directly conjugated with anti-Aβ40 monoclonal antibody (G210) are added to one microplate and anti-Aβ42 monoclonal antibody (12F4) acceptor beads were added to the other. Abundance of Aβ40 and Aβ42 is directly proportional to the luminescent signal generated following excitation of donor beads by laser light.

Setting [1] is: read-out: IC50, inhibition of production of Aβ40 peptide.
Where [2] appears, read: read-out: IC50, inhibition of production of Aβ42 peptide.

Like-named read-outs stand apart in the source and are kept apart here. Bounds are passed on as bounds.

Turning to `CCn1nc(-c2cccc(C(C)(C)NS(=O)(=O)CC(F)(F)F)c2)cc1Oc1ccc(C(F)(F)F)cc1` [Example 1, N-[1-(3-{1-ethyl-5-[4-(trifluoromethyl)phenoxy]-1H-pyrazol-3-yl}phenyl)-1-methylethyl]-2,2,2-trifluoroethanesulfonamide], the IC50 under setting [1] was less than 0.2 µM and the IC50 under setting [2] was less than 0.2 µM.
Consider `CCn1nc(-c2cccc(C(C)(C)NS(=O)(=O)CC3CCC3)c2)cc1Oc1ccc(C(F)(F)F)cc1` [Example 2, 1-cyclobutyl-N-[1-(3-{1-ethyl-5-[4-(trifluoromethyl)phenoxy]-1H-pyrazol-3-yl}phenyl)-1-methylethyl]methanesulfonamide], for which the IC50 under setting [1] is less than 0.2 µM and the IC50 under setting [2] is less than 0.2 µM.
For the compound `CCn1nc(-c2cccc(C(C)(C)NS(=O)(=O)NC3CCC3)c2)cc1Oc1ccc(C(F)(F)F)cc1` [Example 3, N-cyclobutyl-N′-[1-(3-{1-ethyl-5-[4-(trifluoromethyl)phenoxy]-1H-pyrazol-3-y}phenyl)-1-methylethyl]sulfamide], the IC50 by setting is: under setting [1], less than 0.2 µM; under setting [2], less than 0.2 µM.
With `CCn1nc(-c2cccc(C(C)(C)NS(=O)(=O)NCC(F)(F)F)c2)cc1Oc1ccc(C(F)(F)F)cc1` [Example 4, N-[1-(3-{1-ethyl-5-[4-(trifluoromethyl)phenoxy]-1H-pyrazol-3-yl}phenyl)-1-methylethyl]-N′-(2,2,2-trifluoroethyl)sulfamide], the IC50 reads like this: under setting [1], less than 0.2 µM; under setting [2], less than 0.2 µM.
Regarding `CCn1nc(-c2cccc(C(C)(C)NS(=O)(=O)CC(F)(F)F)c2)cc1Oc1ccc(C(F)(F)F)cc1F` [Example 5, N-[1-(3-{1-ethyl-5-[2-fluoro-4-(trifluoromethyl)phenoxy]-1H-pyrazol-3-yl}phenyl)-1-methylethyl]-2,2,2-trifluoroethanesulfonamide], the IC50 under setting [1] is less than 0.2 µM and the half-maximal inhibitory concentration (IC50) under setting [2] is less than 0.2 µM.
With `CCn1nc(-c2cccc(C(C)(C)NS(=O)(=O)CC(F)(F)F)c2)cc1Oc1ccccc1F` [Example 7, N-(1-{3-[1-ethyl-5-(2-fluorophenoxy)-1H-pyrazol-3-yl]phenyl}-1-methylethyl)-2,2,2-trifluoroethanesulfonamide], the IC50 reads like this: under setting [1], less than 0.2 µM; under setting [2], less than 0.2 µM.
For `CCCNS(=O)(=O)NC(C)(C)c1cccc(-c2cc(Oc3ccc(C(F)(F)F)cc3)n(CC)n2)c1` [Example 8, N-[1-(3-{1-ethyl-5-[4-(trifluoromethyl)phenoxy]-1H-pyrazol-3-yl}phenyl)-1-methylethyl]-N′-propylsulfamide], the IC50 under setting [1] is less than 0.2 µM and the IC50 under setting [2] was less than 0.2 µM.
Regarding `CCn1nc(-c2cccc(C(C)(C)NS(=O)(=O)NCC(C)C)c2)cc1Oc1ccc(C(F)(F)F)cc1` [Example 9, N-[1-(3-{1-ethyl-5-[4-(trifluoromethyl)phenoxy]-1H-pyrazol-3-yl}phenyl)-1-methylethyl]-N′-isobutylsulfamide], the IC50 runs as follows: under setting [1], less than 0.2 µM; under setting [2], less than 0.2 µM.
Take `CCn1nc(-c2cccc(C(C)(C)NS(=O)(=O)NC)c2)cc1Oc1ccc(C(F)(F)F)cc1` [Example 10, N-[1-(3-{1-ethyl-5-[4-(trifluoromethyl)phenoxy]-1H-pyrazol-3-yl}phenyl)-1-methylethyl]-N′-methylsulfamide]: the IC50 is, setting by setting: under setting [1], less than 0.2 µM; under setting [2], less than 0.2 µM.
For the compound `CCn1nc(-c2cccc(C(C)(C)NS(=O)(=O)N3CCCC3)c2)cc1Oc1ccc(C(F)(F)F)cc1` [Example 11, N-[1-(3-{1-ethyl-5-[4-(trifluoromethyl)phenoxy]-1H-pyrazol-3-yl}phenyl)-1-methylethyl]pyrrolidine-1-sulfonamide], the IC50 under setting [1] is less than 0.2 µM and the IC50 under setting [2] was less than 0.2 µM.
For the compound `CCn1nc(-c2cccc(C(C)(C)NS(=O)(=O)C3CC3)c2)cc1Oc1ccc(C(F)(F)F)cc1` [Example 12, N-[1-(3-{1-ethyl-5-[4-(trifluoromethyl)phenoxy]-1H-pyrazol-3-yl}phenyl)-1-methylethyl] cyclopropanesulfonamide], the IC50 was less than 0.2 µM under setting [1] and less than 0.2 µM under setting [2].
For the compound `CCn1nc(-c2cccc(C(C)(C)NS(=O)(=O)NC3CCCC3)c2)cc1Oc1ccc(C(F)(F)F)cc1` [Example 13, N-cyclopentyl-N′-[1-(3-{1-ethyl-5-[4-(trifluoromethyl)phenoxy]-1H-pyrazol-3-yl}phenyl)-1-methylethyl]sulfamide], the IC50 was less than 0.2 µM under setting [1] and less than 0.2 µM under setting [2].
As for `CCn1nc(-c2cccc(C(C)(C)NS(=O)(=O)N(C)C)c2)cc1Oc1ccc(C(F)(F)F)cc1` [Example 14, N′-[1-(3-{1-ethyl-5-[4-(trifluoromethyl)phenoxy]-1H-pyrazol-3-yl}phenyl)-1-methylethyl]-N,N-dimethylsulfamide], the IC50 was less than 0.2 µM under setting [1] and less than 0.2 µM under setting [2].
Regarding `CCn1nc(-c2cc(F)cc(C(C)(C)NS(=O)(=O)CC(F)(F)F)c2)cc1Oc1ccc(C(F)(F)F)cc1` [Example 15, N-[1-(3-{1-ethyl-5-[4-(trifluoromethyl)phenoxy]-1H-pyrazol-3-yl}-5-fluorophenyl)-1-methylethyl]-2,2,2-trifluoraethanesulfonamide], the IC50 under setting [1] was less than 0.2 µM and the IC50 under setting [2] is less than 0.2 µM.
As for `CCn1nc(Oc2ccc(C(F)(F)F)cc2)cc1-c1cccc(C(C)(C)NS(=O)(=O)NC2CCC2)c1` [Example 16, N-cyclobutyl-N′-[1-(3-{1-ethyl-3-[4-(trifluoromethyl)phenoxy]-1H-pyrazol-5-yl}phenyl)-1-methylethyl]sulfamide], the IC50 is less than 0.2 µM under setting [1] and less than 0.2 µM under setting [2].
Turning to `CCn1nc(Oc2ccc(C(F)(F)F)cc2)cc1-c1cccc(C(C)(C)NS(=O)(=O)NCC(C)C)c1` [Example 17, N-[1-(3-{1-ethyl-3-[4-(trifluoromethyl)phenoxy]-1H-pyrazol-5-yl}phenyl)-1-methylethyl]-N′-isobutylsulfamide], the IC50 under setting [1] is less than 0.2 µM and the IC50 under setting [2] is less than 0.2 µM.
Consider `CCn1nc(Oc2ccc(C(F)(F)F)cc2)cc1-c1cccc(C(C)(C)NS(=O)(=O)NC2CCCC2)c1` [Example 18, N-cyclopentyl-N′-[1-(3-{1-ethyl-3-[4-(trifluoromethyl)phenoxy]-H-pyrazol-5-yl}phenyl)-1-methylethyl]sulfamide], for which the IC50 was less than 0.2 µM under setting [1] and less than 0.2 µM under setting [2].
In the case of `CCn1nc(Oc2ccc(C(F)(F)F)cc2)cc1-c1cccc(C(C)(C)NS(=O)(=O)CC(F)(F)F)c1` [Example 20, N-[1-(3-{1-ethyl-3-[4-(trifluoromethyl)phenoxy]-1H-pyrazol-5-yl}phenyl)-1-methylethyl]-2,2,2-trifluoroethanesulfonamide], the IC50 runs as follows: under setting [1], less than 0.2 µM; under setting [2], less than 0.2 µM.
On to `CCn1nc(Oc2ccc(C(F)(F)F)cc2F)cc1-c1cccc(C(C)(C)NS(=O)(=O)CC(F)(F)F)c1` [Example 21, N-[1-(3-{1-ethyl-3-[2-fluoro-4-(trifluoromethyl)phenoxy]-1H-pyrazol-5-yl}phenyl)-1-methylethyl]-2,2,2-trifluoroethanesulfonamide], for which the IC50 is less than 0.2 µM under setting [1] and less than 0.2 µM under setting [2].
Consider `CCn1nc(Oc2ccc(Cl)nc2)cc1-c1cccc(C(C)(C)NS(=O)(=O)CC(F)(F)F)c1` [Example 22, N-[1-(3-{3-[(6-chloropyridin-3-yl)oxy]-1-ethyl-1H-pyrazol-5-yl]phenyl)-1-methylethyl]-2,2,2-trifluoroethanesulfonamide], for which the IC50 under setting [1] is less than 0.2 µM and the IC50 under setting [2] was less than 0.2 µM.
As to `CCCNS(=O)(=O)NC(C)(C)c1cccc(-c2cc(Oc3ccc(C(F)(F)F)cc3)nn2CC)c1` [Example 23, N-[1-(3-{1-ethyl-3-[4-(trifluoromethyl)phenoxy]-1H-pyrazol-5-yl}phenyl)-1-methylethyl]-N′-propylsulfamide], the IC50 reads like this: under setting [1], less than 0.2 µM; under setting [2], less than 0.2 µM.
For `CCn1nc(Oc2ccc(C(F)(F)F)cc2)cc1-c1cccc(C(C)(C)NS(=O)(=O)NC)c1` [Example 24, N-[1-(3-{1-ethyl-3-[4-(trifluoromethyl)phenoxy]-1H-pyrazol-5-yl}phenyl)-1-methylethyl]-N′-methylsulfamide], the IC50 is less than 0.2 µM under setting [1] and less than 0.2 µM under setting [2].
Turning to `CCn1nc(Oc2ccc(C(F)(F)F)cc2)cc1-c1cccc(C(C)(C)NS(=O)(=O)N(C)C)c1` [Example 25, N′-[1-(3-{1-ethyl-3-[4-(trifluoromethyl)phenoxy]-1H-pyrazol-5-yl}phenyl)-1-methylethyl]-N,N-dimethylsulfamide], the IC50 is less than 0.2 µM under setting [1] and less than 0.2 µM under setting [2].
On to `CCn1nc(Oc2ccc(C(F)(F)F)cc2)cc1-c1cccc(C(C)(C)NS(=O)(=O)N2CCCC2)c1` [Example 26, N-[1-(3-{1-ethyl-3-[4-(trifluoromethyl)phenoxy]-1H-pyrazol-5-yl}phenyl)-1-methylethyl]pyrrolidine-1-sulfonamide], for which the IC50 under setting [1] was less than 0.2 µM and the IC50 under setting [2] is less than 0.2 µM.
With `CCn1nc(Oc2ccc(C(F)(F)F)cc2)cc1-c1cccc(C(C)(C)NS(=O)(=O)N2CCCCC2)c1` [Example 27, N-[1-(3-{1-ethyl-3-[4-(trifluoromethyl)phenoxy]-1H-pyrazol-5-yl}phenyl)-1 methylethyl]piperidine-1-sulfonamide], the IC50 under setting [1] was less than 0.2 µM and the IC50 under setting [2] was less than 0.2 µM.
For the compound `CCn1nc(-c2cccc(C3(NS(=O)(=O)CC(F)(F)F)CC3)c2)cc1Oc1ccc(C(F)(F)F)cc1` [Example 28, N-[1-(3-{1-ethyl-5-[4-(trifluoromethyl)phenoxy]-1H-pyrazol-3-yl}phenyl)cyclopropyl]-2,2,2-trifluoroethanesulfonamide], the IC50 was less than 0.2 µM under setting [1] and less than 0.2 µM under setting [2].
